Measurements reported in the supplement of paper PMC10307832.

Legend:
Experiment in all cases: relative viability (nuclei count vs DMSO), 5 days (fraction); higher = more cells survive
OSI-027 + Alpelisib = compound: COc1cccc2cc(-c3nc([C@H]4CC[C@H](C(=O)O)CC4)n4ncnc(N)c34)[nH]c12 [OSI-027] + Cc1nc(NC(=O)N2CCC[C@H]2C(N)=O)sc1-c1ccnc(C(C)(C)C(F)(F)F)c1 [Alpelisib] (partner 2 µM)
Outline: (§1)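 A single step with final 0.05% Triton X-100, 1% formaldehyde and 1 ug/ml Hoechst fixed the cells and stained nuclei 5 days after treatment. Lung cancer cell lines in 1536-well plates had been treated by pin tool the day after seeding with one drug alone or a fixed anchor-drug dose plus five library-drug doses (not always all listed) in √10 steps, and nuclei were counted on 4× images. Relative viability is the ratio of nuclei in treated wells to nuclei in vehicle wells, taken as the median of duplicate plates.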

Vemurafenib + Alpelisib = compound: CCCS(=O)(=O)Nc1ccc(F)c(C(=O)c2c[nH]c3ncc(-c4ccc(Cl)cc4)cc23)c1F [Vemurafenib] + Cc1nc(NC(=O)N2CCC[C@H]2C(N)=O)sc1-c1ccnc(C(C)(C)C(F)(F)F)c1 [Alpelisib] (partner 2 µM)
Outline: as §1

Vemurafenib + Navitoclax = compound: CCCS(=O)(=O)Nc1ccc(F)c(C(=O)c2c[nH]c3ncc(-c4ccc(Cl)cc4)cc23)c1F [Vemurafenib] + CC1(C)CCC(c2ccc(Cl)cc2)=C(CN2CCN(c3ccc(C(=O)NS(=O)(=O)c4ccc(N[C@H](CCN5CCOCC5)CSc5ccccc5)c(S(=O)(=O)C(F)(F)F)c4)cc3)CC2)C1 [Navitoclax] (partner 0.5 µM)
Outline: as §1

OSI-027 + Foretinib = compound: COc1cccc2cc(-c3nc([C@H]4CC[C@H](C(=O)O)CC4)n4ncnc(N)c34)[nH]c12 [OSI-027] + COc1cc2c(Oc3ccc(NC(=O)C4(C(=O)Nc5ccc(F)cc5)CC4)cc3F)ccnc2cc1OCCCN1CCOCC1 [Foretinib] (partner 0.25 µM)
Outline: as §1

Question: Which relative viability (OSI-027 + Alpelisib; first compound 0.01 µM) does the source give for Calu-6 here?
Answer: Its relative viability is 0.917.

Question: What about the relative viability (OSI-027 + Alpelisib; first compound 0.03162 µM) of the same cell line?
Answer: Its relative viability is 0.974.

Question: And the relative viability (OSI-027 + Alpelisib; first compound 0.1 µM)?
Answer: The relative viability was 0.75.

Question: And the relative viability (OSI-027 + Alpelisib; first compound 0.3162 µM)?
Answer: Its relative viability is 0.697.

Question: And the relative viability (OSI-027 + Alpelisib; first compound 1 µM)?
Answer: The relative viability was 0.42.

Question: And the relative viability (Vemurafenib + Alpelisib; first compound 0.03162 µM)?
Answer: Its relative viability is 0.975.

Question: What about the relative viability (Vemurafenib + Alpelisib; first compound 0.1 µM) of the same cell line?
Answer: Its relative viability is 0.891.

Question: And the relative viability (Vemurafenib + Alpelisib; first compound 0.3162 µM)?
Answer: The relative viability was 0.817.

Question: What about the relative viability (Vemurafenib + Alpelisib; first compound 1 µM) of the same cell line?
Answer: The relative viability was 0.904.

Question: What about the relative viability (Vemurafenib + Navitoclax; first compound 0.03162 µM) of the same cell line?
Answer: The relative viability was 0.866.

Question: And the relative viability (Vemurafenib + Navitoclax; first compound 0.1 µM)?
Answer: Its relative viability is 0.814.

Question: What about the relative viability (Vemurafenib + Navitoclax; first compound 0.3162 µM) of the same cell line?
Answer: The relative viability was 0.609.

Question: And the relative viability (Vemurafenib + Navitoclax; first compound 1 µM)?
Answer: Its relative viability is 0.707.

Question: And the relative viability (OSI-027 + Foretinib; first compound 0.01 µM)?
Answer: Its relative viability is 0.989.

Question: What about the relative viability (OSI-027 + Foretinib; first compound 0.03162 µM) of the same cell line?
Answer: Its relative viability is 0.936.

Question: And the relative viability (OSI-027 + Foretinib; first compound 0.1 µM)?
Answer: Its relative viability is 0.837.

Question: What about the relative viability (OSI-027 + Foretinib; first compound 0.3162 µM) of the same cell line?
Answer: Its relative viability is 0.784.

Question: And the relative viability (OSI-027 + Foretinib; first compound 1 µM)?
Answer: The relative viability was 0.593.
